Test results from US9656962B2, “Ring-contracted morphinans and the use thereof” (Purdue Pharma L.P., priority 2013, dated 2017).

Tests used:
Type in all cases: biochemical
μ-opioid receptor [1] = target: T1, μ-opioid receptor (Homo sapiens (Human), UniProt P35372); assay: μ-opioid receptor [35S]GTPγS functional assay, HEK-293 or CHO cells (Table 4); conditions: for Emax: relative to DAMGO; for EC50: μ GTP
Method: μ-Opioid Receptor Functional Assay Procedures: [^35S]GTPγS functional assays were conducted using freshly thawed μ-receptor membranes prepared in-house from a cell line expressing recombinant μ opioid receptor in a HEK-293, CHO or U-2 OS cell background, or purchased from a commercial source (Perkin Elmer, Shelton, Conn.; or DiscovRx, Fremont, Calif.). Assay reactions were prepared by sequentially adding the following reagents to binding buffer (100 mM NaCl, 10 mM MgCl2, 20 mM HEPES, pH 7.4) on ice (final concentrations indicated): membrane protein (0.026 mg/mL), saponin ([…]), GDP ([…]) and [^35S]GTPγS (0.20 nM; Perkin Elmer, Shelton, Conn.). The prepared membrane solution (190 μl/well) was transferred to 96-shallow well polypropylene plates containing 10 μl of 20× concentrated stock solutions of the agonist [D-Ala^2, N-methyl-Phe^4 Gly-ol^5]-enkephalin (DAMGO) prepared in dimethyl sulfoxide (DMSO). Plates were incubated for 30 min at about 25° C. with shaking Reactions were terminated by rapid filtration onto 96-well Unifilter GF/B filter plates (Perkin Elmer, Shelton, Conn.) using a 96-well tissue harvester (Perkin Elmer, Shelton, Conn.) followed by three filtration washes with 200 μl of ice-cold wash buffer (10 mM NaH2PO4, 10 mM Na2HPO4, pH 7.4). Filter plates were subsequently dried at 50° C. for 2-3 hours. BetaScint scintillation cocktail (Perkin Elmer, Shelton, Conn.) was added (50 μl/well) and plates were counted using a Packard Top-Count for 1 min/well. Data were analyzed using the sigmoidal dose-response curve fitting functions in GraphPad PRISM v. 3.0, or an in-house function for non-linear, sigmoidal dose-response curve-fitting. [^35S]GTPγS functional assays can also be conducted using freshly thawed μ-receptor membranes prepared from a cell line expressing recombinant μ opioid receptor in a CHO-K1 cell background.
μ GTP Emax (%) is the maximal effect elicited by a compound relative to the effect elicited by DAMGO, a standard μ agonist.
(§1) In TABLE 4, activity response of certain Compounds of the Invention to the μ- and κ-opioid receptors was determined as described above for functional assays using HEK-293 or CHO cells.

κ-opioid receptor [2] = target: T2, κ-opioid receptor (Homo sapiens (Human), UniProt P41145); assay: κ-opioid receptor [35S]GTPγS functional assay, U-2 OS cells (Table 5); conditions: for Emax: relative to U69,593; for EC50: κ GTP
Procedure, shortened: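 [35S]GTPγS binding in κ receptor membranes (0.026 μg/μl protein) with 10 μg/mL saponin, 3 μM GDP and 0.20 nM [35S]GTPγS in pH 7.4 HEPES/NaCl/MgCl2 buffer. Agonist incubation lasted 30 min at about 25 °C, followed by filtration and scintillation counting. Emax is expressed relative to U69,593.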

κ-opioid receptor [3] = target: T2, κ-opioid receptor; assay: κ-opioid receptor [35S]GTPγS functional assay, HEK-293 or CHO cells (Table 4); conditions: for Emax: relative to U69,593; for EC50: κ GTP
Method: κ-Opioid Receptor Functional Assay Procedures: Functional [^35S]GTPγS binding assays were conducted as follows. κ opioid receptor membrane solution was prepared by sequentially adding final concentrations of 0.026 μg/μl κ membrane protein (in-house), 10 μg/mL saponin, 3 μM GDP and 0.20 nM [^35S]GTPγS to binding buffer (100 mM NaCl, 10 mM MgCl2, 20 mM HEPES, pH 7.4) on ice. The prepared membrane solution (190 μl/well) was transferred to 96-shallow well polypropylene plates containing 10 μl of 20× concentrated stock solutions of agonist prepared in DMSO. Plates were incubated for 30 min at a temperature of about 25° C. with shaking. Reactions were terminated by rapid filtration onto 96-well Unifilter GF/B filter plates (Perkin Elmer, Shelton, Conn.) using a 96-well tissue harvester (Packard) and followed by three filtration washes with 200 μl ice-cold binding buffer (10 mM NaH2PO4, 10 mM Na2HPO4, pH 7.4). Filter plates were subsequently dried at 50° C. for 2-3 hours. Fifty μl/well scintillation cocktail (Perkin Elmer, Shelton, Conn.) was added and plates were counted in a Packard Top-Count for 1 min/well.
κ GTP Emax (%) is the maximal effect elicited by a compound relative to the effect elicited by U69,593.
as §1

μ-opioid receptor [4] = target: T1, μ-opioid receptor; assay: μ-opioid receptor [35S]GTPγS functional assay, U-2 OS cells (Table 5); conditions: for Emax: relative to DAMGO; for EC50: μ GTP
Procedure, shortened: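 Membranes (0.026 mg/mL) from cells expressing recombinant human μ-opioid receptor in a U-2 OS background were incubated with 0.20 nM [35S]GTPγS, 3 mM GDP and saponin in 20 mM HEPES pH 7.4, 100 mM NaCl, 10 mM MgCl2 for 30 min at about 25 °C. Filter-bound radioactivity counted; sigmoidal dose-response fits gave values, Emax relative to DAMGO.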

SMILES	Emax (μ-opioid receptor [1])	EC50 (μ-opioid receptor [1]; bound given in μM)	Emax (κ-opioid receptor [2])	EC50 (κ-opioid receptor [2])	Emax (κ-opioid receptor [3])	EC50 (κ-opioid receptor [3])	Emax (μ-opioid receptor [4])	EC50 (μ-opioid receptor [4])	EC50 (μ-opioid receptor [1])
O=C(NCc1ccc(O)cc1O)[C@@H]1C[C@]23CCN(CC4CC4)[C@H](Cc4ccc(O)cc42)[C@]3(O)C1 [Compound 41, (2R,3aS,4R,9bS)-12-(cyclopropylmethyl)-N-(2,4-dihydroxybenzyl)-3a,8-dihydroxy-1,2,3,3a,4,5-hexahydro-4,9b-(epimino-ethano)cyclopenta[a]naphthalene-2-carboxamide]	1%	> 20 µM	86.7 ± 6.74%	1.02 ± 0.08 nM	35.8 ± 3.07%	1.74 ± 0.47 nM	25.3 ± 1.33%	4.19 ± 1.02 nM	–
O=C(NCc1ccc(Cl)c(Cl)c1)[C@@H]1C[C@]23CCN(CC4CC4)[C@H](Cc4ccc(O)cc42)[C@]3(O)C1 [Compound 46, (2R,3aS,4R,9bS)-12-(cyclopropylmethyl)-N-(3,4-dichlorobenzyl)-3a,8-dihydroxy-1,2,3,3a,4,5-hexahydro-4,9b-(epimino-ethano)cyclopenta[a]naphthalene-2-carboxamide]	0%	> 20 µM	106 ± 4.26%	0.11 ± 0.01 nM	32 ± 5%	0.2 ± 0.072 nM	38 ± 1.73%	0.91 ± 0.05 nM	–
NC(=O)[C@H]1C[C@]23CCN(CC4CC4)[C@H](Cc4ccc(O)cc42)[C@]3(O)C1 [Compound 30, (2S,3aS,4R,9bS)-12-(cyclopropylmethyl)-3a,8-dihydroxy-1,2,3,3a,4,5-hexahydro-4,9b-(epiminoethano)cyclopenta-[a]naphthalene-2-carboxamide]	1%	> 20 µM	100 ± 1.2%	1.26 ± 0.05 nM	50.7 ± 0.33%	2.49 ± 0.09 nM	32 ± 1.15%	1.62 ± 0.41 nM	–
O=C(NCc1cc(F)cc(F)c1)[C@@H]1C[C@]23CCN(CC4CC4)[C@H](Cc4ccc(O)cc42)[C@]3(O)C1 [Compound 49, (2R,3aS,4R,9bS)-12-(cyclopropylmethyl)-N-(3,5-difluorobenzyl)-3a,8-dihydroxy-1,2,3,3a,4,5-hexahydro-4,9b-(epimino-ethano)cyclopenta[a]naphthalene-2-carboxamide]	10.5 ± 0.29%	–	108 ± 4.7%	0.82 ± 0.099 nM	–	–	42.3 ± 1.45%	3.73 ± 0.23 nM	0.00617 ± 0.00198 µM
O=C(NCc1ccc(O)cc1)[C@@H]1C[C@]23CCN(CC4CC4)[C@H](Cc4ccc(O)cc42)[C@]3(O)C1 [Compound 39, (2R,3aS,4R,9bS)-12-(cyclopropylmethyl)-3a,8-dihydroxy-N-(4-hydroxybenzyl)-1,2,3,3a,4,5-hexahydro-4,9b-(epimino-ethano)cyclopenta[a]naphthalene-2-carboxamide]	15 ± 1.73%	–	91.7 ± 1.86%	1.85 ± 0.097 nM	–	–	42 ± 1%	11.1 ± 0.28 nM	0.0375 ± 0.0126 µM
COc1ccc2c(c1)C13CCN(CC4CC4)[C@H](C2)[C@]1(O)C[C@@H](N)C3 (stereo in doubt) [Compound 28, (2S,3aS,4R,9bS)-2-amino-12-(cyclopropylmethyl)-8-methoxy-1,2,3,3a,4,5-hexahydro-4,9b-(epiminoethano)cyclopenta[a]naphthalene-3a-ol]	7.5%	> 20 µM	106.7 ± 0.88%	179 ± 16.4 nM	–	–	35.7 ± 5.49%	326 ± 77.9 nM	–
O=C(NCc1ccc(F)cc1)[C@@H]1C[C@]23CCN(CC4CC4)[C@H](Cc4ccc(O)cc42)[C@]3(O)C1 [Compound 48, (2R,3aS,4R,9bS)-12-(cyclopropylmethyl)-N-(4-fluorobenzyl)-3a,8-dihydroxy-1,2,3,3a,4,5-hexahydro-4,9b-(epimino-ethano)cyclopenta[a]naphthalene-2-carboxamide]	-1%	> 20 µM	106 ± 2.33%	1.46 ± 0.29 nM	–	–	40 ± 1.53%	3.12 ± 0.27 nM	–
Cc1ccc(CNC(=O)[C@@H]2C[C@]34CCN(CC5CC5)[C@H](Cc5ccc(O)cc53)[C@]4(O)C2)cc1 [Compound 37, (2R,3aS,4R,9bS)-12-(cyclopropylmethyl)-3a,8-dihydroxy-N-(4-methylbenzyl)-1,2,3,3a,4,5-hexahydro-4,9b-(epimino-ethano)cyclopenta[a]naphthalene-2-carboxamide]	1%	> 20 µM	105.3 ± 0.88%	0.97 ± 0.11 nM	32.5 ± 2.1%	1.74 ± 0.39 nM	30.7 ± 2.67%	8.48 ± 2.28 nM	–
O=C(NCCc1ccccc1)[C@H]1C[C@]23CCN(CC4CC4)[C@H](Cc4ccc(O)cc42)[C@]3(O)C1 [Compound 51, (2S,3aS,4R,9bS)-12-(cyclopropylmethyl)-3a,8-dihydroxy-N-phenethyl-1,2,3,3a,4,5-hexahydro-4,9b-(epiminoethano)cyclo-penta[a]naphthalene-2-carboxamide]	43 ± 3.06%	–	102 ± 2.31%	0.047 nM	–	–	87.7 ± 1.2%	0.13 ± 0.015 nM	0.00049 ± 4e-05 µM
COc1ccc2c(c1)[C@]13CCN(CC4CC4)[C@H](C2)[C@]1(O)C[C@@H](C(=O)O)C3 [Compound 15, (2S,3aS,4R,9bS)-12-(cyclopropylmethyl)-3a-hydroxy-8-methoxy-1,2,3,3a,4,5-hexahydro-4,9b-(epiminoethano)-cyclopenta[a]naphthalene-2-carboxylic acid]	7%	> 20 µM	79.7 ± 5.81%	2900 ± 82.3 nM	–	–	31.6 ± 3.21%	343 ± 110 nM	–
CN1CC[C@]23C[C@@H](C(N)=O)C[C@@]2(O)[C@H]1Cc1ccc(O)cc13 [Compound 77, (2R,3aS,4R,9bS)-3a,8-dihydroxy-12-methyl-1,2,3,3a,4,5-hexahydro-4,9b-(epiminoethano)cyclopenta[a]naphthalene-2-carboxamide]	19.6 ± 5.65%	–	65.3 ± 6.44%	1150 ± 221 nM	–	–	85 ± 2.52%	389 ± 74 nM	0.58 ± 0.131 µM
NC(=O)CNC(=O)[C@@H]1C[C@]23CCN(CC4CC4)[C@H](Cc4ccc(O)cc42)[C@]3(O)C1 [Compound 64, (2R,3aS,4R,9bS)-N-(2-amino-2-oxoethyl)-12-(cyclopropylmethyl)-3a,8-dihydroxy-1,2,3,3a,4,5-hexahydro-4,9b-(epiminoethano)cyclopenta[a]naphthalene-2-carboxamide]	3.5%	> 20 µM	101 ± 4.98%	3.51 ± 0.16 nM	–	–	48.7 ± 0.33%	6.96 ± 0.27 nM	–
O=C(NCc1ccc(Cl)cc1)[C@@H]1C[C@]23CCN(CC4CC4)[C@H](Cc4ccc(O)cc42)[C@]3(O)C1 [Compound 43, (2R,3aS,4R,9bS)-N-(4-chlorobenzyl)-12-(cyclopropylmethyl)-3a,8-dihydroxy-1,2,3,3a,4,5-hexahydro-4,9b-(epimino-ethano)cyclopenta[a]naphthalene-2-carboxamide]	11 ± 0.82%	–	102 ± 5.9%	0.67 ± 0.02 nM	–	–	41.3 ± 2.03%	4.55 ± 0.14 nM	0.00835 ± 0.0018 µM
